Data: US20060223846A1, “Aza-bridged-bicyclic amino acid derivatives as alpha4 integrin antagonists” (priority 2005, published 2006)
Where two headings read alike, the source gives them in different places.

How the values were obtained:
α4β1 [1] = target: T1, α4β1 (Homo sapiens, UniProt P05556+P13612); conditions: literature (Tamraz et al.); cited from earlier work
[2] = test system: oxazolone-induced contact hypersensitivity; conditions: 6 mg/kg, sc; mouse; cited from earlier work
[3] = test system: heterotopic heart allograft; conditions: hyperlipidemic rabbit; cited from earlier work
human α4β7 = target: T2, human α4β7 (Homo sapiens, UniProt P13612+P26010); assay: α4β7-K562 Cell Adhesion Assay (α4β7 Mediated Adhesion/VCAM-1); assay type: cell-based
T2 construct: expressed in transfected cells
T2 sequence (P13612 34-1032): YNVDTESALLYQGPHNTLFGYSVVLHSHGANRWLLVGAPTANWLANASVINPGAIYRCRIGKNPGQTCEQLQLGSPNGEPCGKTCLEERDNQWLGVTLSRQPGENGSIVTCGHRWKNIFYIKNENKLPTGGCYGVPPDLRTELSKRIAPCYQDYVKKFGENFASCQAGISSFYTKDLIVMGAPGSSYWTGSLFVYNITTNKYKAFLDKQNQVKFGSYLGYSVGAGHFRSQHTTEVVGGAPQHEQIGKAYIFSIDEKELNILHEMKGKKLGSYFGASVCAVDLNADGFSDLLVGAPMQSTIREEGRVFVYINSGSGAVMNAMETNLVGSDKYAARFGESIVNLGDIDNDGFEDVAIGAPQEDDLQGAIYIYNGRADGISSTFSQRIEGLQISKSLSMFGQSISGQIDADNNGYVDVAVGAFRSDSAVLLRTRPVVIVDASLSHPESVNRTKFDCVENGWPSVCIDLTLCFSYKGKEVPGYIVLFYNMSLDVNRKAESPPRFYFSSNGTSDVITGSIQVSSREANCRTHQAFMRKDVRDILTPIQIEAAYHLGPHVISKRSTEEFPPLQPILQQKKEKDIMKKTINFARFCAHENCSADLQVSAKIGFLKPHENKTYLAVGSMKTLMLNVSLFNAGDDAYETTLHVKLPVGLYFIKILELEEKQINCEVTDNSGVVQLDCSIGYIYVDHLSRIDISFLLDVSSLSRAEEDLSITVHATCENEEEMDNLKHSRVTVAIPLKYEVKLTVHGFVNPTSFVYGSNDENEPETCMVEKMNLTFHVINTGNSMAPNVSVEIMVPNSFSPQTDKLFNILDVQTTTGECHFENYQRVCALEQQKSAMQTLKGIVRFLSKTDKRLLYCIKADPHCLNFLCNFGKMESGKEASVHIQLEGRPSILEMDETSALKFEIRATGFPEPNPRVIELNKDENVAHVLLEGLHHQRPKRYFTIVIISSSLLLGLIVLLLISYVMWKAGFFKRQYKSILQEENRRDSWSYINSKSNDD
T2 sequence (P26010 20-798): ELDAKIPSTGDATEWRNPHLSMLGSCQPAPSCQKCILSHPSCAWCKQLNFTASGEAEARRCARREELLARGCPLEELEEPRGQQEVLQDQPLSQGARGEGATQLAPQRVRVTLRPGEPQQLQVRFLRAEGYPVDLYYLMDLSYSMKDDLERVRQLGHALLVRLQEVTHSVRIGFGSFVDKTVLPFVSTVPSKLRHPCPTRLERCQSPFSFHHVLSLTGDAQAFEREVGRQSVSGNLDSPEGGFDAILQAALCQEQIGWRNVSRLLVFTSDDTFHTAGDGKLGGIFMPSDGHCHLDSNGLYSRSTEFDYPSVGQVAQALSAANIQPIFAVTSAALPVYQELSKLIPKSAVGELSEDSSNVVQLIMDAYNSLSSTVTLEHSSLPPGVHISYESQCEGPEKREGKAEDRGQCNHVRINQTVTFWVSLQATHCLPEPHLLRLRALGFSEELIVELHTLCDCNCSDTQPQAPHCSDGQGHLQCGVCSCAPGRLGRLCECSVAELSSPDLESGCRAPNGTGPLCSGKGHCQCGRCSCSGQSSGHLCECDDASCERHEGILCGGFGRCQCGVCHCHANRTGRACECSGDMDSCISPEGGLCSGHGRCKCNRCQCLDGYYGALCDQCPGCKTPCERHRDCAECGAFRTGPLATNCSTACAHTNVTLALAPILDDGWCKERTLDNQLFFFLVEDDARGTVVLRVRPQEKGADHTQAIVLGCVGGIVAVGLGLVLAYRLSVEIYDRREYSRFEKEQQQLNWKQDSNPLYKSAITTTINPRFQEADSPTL
Protocol: (§1) α4β7-K562 Cell Adhesion Assay (α4β7 Mediated Adhesion/VCAM-1) Immulon 96 well plates (Dynex) were coated with 100 μL recombinant hVCAM-1 at 4.0 μg/mL in 0.05 M NaCO3 buffer pH 9.0 overnight at 4° C. (R&D System). Plates were washed 3 times in PBS with 1% BSA and blocked for 1 h @ room temperature in this buffer. PBS was removed and compounds to be tested (50 μL) were added at 2× concentration. A stable cell line of K562 cells expressing human α4β7, (50 μL at 2×10^6/mL) labeled with 5 μM Calcein AM (Molecular Probes) for 1 h at 37° C., were added to each well and allowed to adhere for 1 h at room temperature. Plates were washed 3× in PBS+1% BSA and cells were lysed for 15 minutes in 100 μL of 1 M Tris pH 8.0 with 1% SDS. The plate was read at 485 nm excitation and 530 nm emission.

[4] = test system: circulating white blood cells (leukocytes); assay: Leukocytosis Procedure; assay type: in vivo, Balb/c mice; conditions: bled 1-1.5 hours after administration
From the text: Background: Leukocytosis is the increase in circulating white blood cells (leukocytes). Luekocytosis can be caused by preventing leukocyte binding to integrin counter-receptor adhesion molecules expressed on high endothelial venules. This cell adhesion occurs between immunoglobulin superfamily molecules and integrins. Relevant examples of these paired interactions include […] Adhesion Molecule-1 and αLβ2 integrin, Vascular Cell Adhesion Molecule-1 and α4β1 integrin, and Mucosal Addressin Cell Adhesion Molecule-1 and α4β7 integrin, respectively.
In this model, a compound that antagonizes these leukocyte-endothelial interactions will cause an increase in circulating leukocytes, defined as leukocytosis, as measured at 1-1.5 hours post-administration. This leukocytosis is indicative that normal lymphocyte or leukocyte emigration from the peripheral circulation was prevented. Similar emigration of cells out of the circulation into inflamed tissues is responsible for the progression and maintenance of the inflammatory state. Leukocytosis is an indication that lymphocyte and leukocyte extravasation is prevented, and is predictive of general anti-inflammatory activity.
1 week prior to being tested, 7-10 week old female Balb/c mice, n=8 per group, were bled and randomized according to leukocyte counts. One week later, the mice were administered a test compound orally or subcutaneously and then bled 1-1.5 hours after drug administration, approximately one hour after the peak blood concentration of the compound had occurred. Whole blood, 250-350 microliters, was collected from each mouse into potassium-EDTA serum collection tubes (Becton-Dickenson) and mixed to prevent clotting.
Cell counts and differential counts on the whole blood preparation were performed using an Advia 120 Hematology System (Bayer Diagnostics). Cell counts as total leukocytes and as total lympohcytes were made and compared to counts made from mice dosed with vehicle only. Data were reported as percent of vehicle control for lymphocyte counts and total leukocyte counts. Statistical analyses were performed using ANOVA with Dunnet's multiple comparison test

α4β1 [5] = target: T1, α4β1; assay: Ramos Cell Adhesion Assay (α4β1 Mediated Adhesion/VCAM-1); assay type: cell-based; set-up: Ramos cells, (50 μL at 2×10^6/mL) labeled with 5 μM Calcein AM; endogenous in cells; host or cells: Ramos cells
Protocol: as §1, with “Ramos” for “α4β7-K562”, “α4β1” for “(α4β7”, “[…]” for “96”, “Systems).” for “System).”, “Ramos cells,” for “A stable cell line of K562 cells expressing human α4β7,”

T1 sequence (P05556 21-798, one chain of several): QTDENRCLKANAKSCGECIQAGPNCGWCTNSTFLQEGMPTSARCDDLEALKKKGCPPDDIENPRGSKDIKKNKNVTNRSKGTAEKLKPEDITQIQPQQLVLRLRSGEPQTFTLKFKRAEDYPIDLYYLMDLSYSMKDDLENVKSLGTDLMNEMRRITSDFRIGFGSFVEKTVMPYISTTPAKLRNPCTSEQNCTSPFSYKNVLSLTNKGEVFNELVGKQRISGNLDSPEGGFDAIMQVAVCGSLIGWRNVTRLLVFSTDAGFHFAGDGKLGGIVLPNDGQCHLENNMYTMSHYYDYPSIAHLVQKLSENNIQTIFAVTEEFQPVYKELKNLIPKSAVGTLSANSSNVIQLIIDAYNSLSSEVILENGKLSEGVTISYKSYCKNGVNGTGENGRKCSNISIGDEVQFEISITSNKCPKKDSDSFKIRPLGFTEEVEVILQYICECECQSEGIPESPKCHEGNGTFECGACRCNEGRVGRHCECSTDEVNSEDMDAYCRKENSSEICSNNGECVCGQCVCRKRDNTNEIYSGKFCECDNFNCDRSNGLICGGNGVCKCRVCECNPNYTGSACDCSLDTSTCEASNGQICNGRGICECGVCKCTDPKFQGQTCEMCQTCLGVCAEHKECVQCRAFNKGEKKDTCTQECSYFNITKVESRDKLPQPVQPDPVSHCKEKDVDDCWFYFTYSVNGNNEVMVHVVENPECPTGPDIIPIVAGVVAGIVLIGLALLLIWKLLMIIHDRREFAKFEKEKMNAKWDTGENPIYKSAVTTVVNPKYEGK

Compound | IC50 (α4β1 [1]) [nM] | efficacy in oxazolone-induced contact hypersensitivity [2] | efficacy in heart allograft model [3] | IC50 (human α4β7; K562 cells expressing human α4β7 on recombinant hVCAM-1, read-out: α4β7 IC50) [nM] | IC50 (human α4β7; repeated in leukocytosis table, unit inferred, read-out: α4β7) [nM] | Lymphocyte Counts % of Vehicle Control ([4]; 3 mg/kg sc) | Total Leukocyte Counts % of Vehicle Control ([4]; 3 mg/kg sc) | Lymphocyte Counts % of Vehicle Control ([4]; 10 mg/kg sc) | Total Leukocyte Counts % of Vehicle Control ([4]; 10 mg/kg sc) | Lymphocyte Counts % of Vehicle Control ([4]; 30 mg/kg sc) | Total Leukocyte Counts % of Vehicle Control ([4]; 30 mg/kg sc) | IC50 (α4β1 [5]; Ramos cells on recombinant hVCAM-1, read-out: α4β1 IC50) [nM] | IC50 (α4β1 [5]; repeated in leukocytosis table, unit inferred, read-out: α4β1) [nM]
Phenylacetyl-Leu-Asp-Phe-D-Pro-NH2 | 2000 | efficacy similar to the α4 antibody PS/2 | effective | – | – | – | – | – | – | – | – | – | –
O=C(Nc1ccc(CC(NC(=O)C2C3CCC(CC3)N2C(=O)CCc2ccccc2)C(=O)O)cc1)c1c(Cl)cncc1Cl (stereo not shown) [Cpd 39] | – | – | – | 7 | 7 | 205.2 % of Vehicle Control | 175.1 % of Vehicle Control | 150.3 % of Vehicle Control | 134.3 % of Vehicle Control | 253.9 % of Vehicle Control | 212.2 % of Vehicle Control | 0.9 | 0.9
